Laboratory results as given in patent US20250170132A1, “SALTS AND POLYMORPHIC FORMS OF MENIN INHIBITORS AND PHARMACEUTICAL COMPOSITIONS THEREOF” (Syndax Pharmaceuticals, Inc., priority 2023, published 2025).

Legend:
Format in all cases: physicochemical
[1] = Solution stability studies at accelerated conditions (counterion-related degradation; Impurity A formation vs temperature, pH, time)
Excerpt: FIG. 32 depicts Impurity A formation as a function of temperature, pH, and time in solution.
(§1) Compound A monocitrate monohydrate has at least two advantageously and unexpected characteristics. Both alone and in comparison, with Compound A salts known in the art (e.g. Compound A fumarate salts). […] Second, in the manufacturing process, Compound A fumarate requires a separate slurrying step which results in a solvate with an organic solvent. Compound A monocitrate monohydrate salt is isolated directly from ethanol:water, no slurrying step is required. […] Additionally, the Compound A monocitrate forms a monohydrate instead of a solvate with one or more organic molecules.

[2] = Approximate solubility estimation in 24 solvents; settings: thermodynamic from solid
Description: About 10 mg of Compound A monocitrate monohydrate was weighed into a 4.0 mL vial and 25 μL of solvent was added at RT. The solution was shaken and stirred. If no clear solution was obtained, another 25 μL was added and this was repeated until 4.0 mL solvent is added.

[3] = Polymorph screen: anti-solvent addition
Description: (§2) X-ray powder diffraction (XRPD) • Instrument: Panalytical Empyrean • Parameters: X-Ray tube Cu (Kα radiation); Power: 45 kV×40 mA • Scanning range: 2 to 40 2θ (degree) • Step size: 0.01 degree • Scanning speed: 6.33 degree (20) per minute Thermogravimetric analysis (TGA) • Instrument: TA Instruments Discovery TGA • Parameters: Ramp 10° C. per minute, 25 to 300° C., 50 mL/min N2 sweep Differential scanning calorimetry (DSC) • Instrument: TA Instruments Discovery DSC • Parameters: Ramp 10° C. per minute, up to 300° C. Polarized light microscopy (PLM) • Instrument: Nikon Eclipse Ci POL • Camera: Nikon DS-Fi3 • Software: Nikon NIS Elements
Experiments using 10 different techniques including using techniques such as anti-solvent addition, solid vapor diffusion, liquid vapor diffusion, slurry (at RT and 50° C.), slow evaporation, polymer induced crystallization, thermal cycling, sonication, and wet grinding.
Obtained solids were tested by XRPD (Table 30).

[4] = Polymorph screen: liquid vapor diffusion
Description: as §2
The obtained solids were characterized by XRPD after 7-10 days (Table 32).

[5] = Polymorph screen: slurry at 50° C.; settings: slurry 50° C.
Description: as §2
Slurry at 50° C.—About 40 mg API was suspended and stirred in different solvents in 4 mL vials at 50° C. The solids in the slurry were characterized by XRPD after 3 days (Table 34).

[6] = Polymorph screen: slow evaporation; settings: Diethylamine, 50° C.
Description: as §2
The vials were covered with paraffin film with 3-5 holes and placed at specified temperature for evaporation. The obtained solids were characterized by XRPD (Table 35).

[7] = Polymorph screen: polymer-induced crystallization
Description: as §2
The obtained solids were characterized by XRPD after 7-10 days (Table 36).

[8] = Polymorph screen: sonication induced crystallization
Description: as §2
Sonication induced crystallization—About 40 mg API was suspended and sonicated in different solvents in 4 mL vials at RT. The solids in the slurry were characterized by XRPD after 1-day (Table 38).

[9] = Aqueous solubility of Compound A salts
Description: Solubility of Compound A citrate was determined in 3 different types of matrices: unbuffered water, citrate-buffered solutions from pH 3 to 6, and formulations consisting of citrate, advantame, methylparaben sodium, potassium sorbate, and sodium chloride at pH ranging from 3 to 6. Solubility in unbuffered water at ambient temperature was 38.5 mg/mL.
The target pH was reassessed when the F3 formulation was developed. Compound A citrate solubility studies were performed initially in simple buffered solutions to assess solubility trends as a function of pH. […] The target concentration of Compound A was therefore changed to 40 mg/mL as a compromise between drug substance and preservatives dissolution rate and stability.

[10] = Solution stability studies at accelerated conditions, counterion adduct (Impurity A); settings: solution stability at accelerated conditions
Excerpt: as §1, with “characteristics.” for “characteristics. Both alone and in comparison, with Compound A salts known in the art (e.g. Compound A fumarate salts).”
Although this degradation pathway is more accelerated in solution it was also observed in the solid API. Formation of Impurity A was the reason why Compound A sesquifumarate API and drug product were stored at refrigerated temperatures.

With `CCN(C(=O)c1cc(F)ccc1Oc1cncnc1N1CC2(CCN(C[C@H]3CC[C@H](NS(=O)(=O)CC)CC3)CC2)C1)C(C)C` [Compound A monocitrate monohydrate] the “reaction of counterion with the pyrimidine ring of Compound A (degradation)” value [1] was “does not react with the pyrimidine ring of Compound A”, the solubility ([2]; aqueous with cosolvent or surfactant or cyclodextrin, 1,4-dioxane/water (7/3), heated for few seconds using heat gun) was 84 to 105 mg/mL and the solubility ([2]; aqueous with cosolvent or surfactant or cyclodextrin, 1-PrOH/water (1/1), heated for few seconds using heat gun) was 161 to 242 mg/mL. For the same compound, the solubility ([2]; aqueous with cosolvent or surfactant or cyclodextrin, Acetone/H2O (9:1 v/v), RT) was 15 to 17.5 mg/mL, the solubility ([2]; aqueous with cosolvent or surfactant or cyclodextrin, MeOH/water (7/3), heated for few seconds using heat gun) was 93 to 186 mg/mL and the solubility ([2]; aqueous with cosolvent or surfactant or cyclodextrin, THF/water (1/1), heated for few seconds using heat gun) was 141 to 212 mg/mL. For the same compound, the solubility ([2]; organic solvent or mixture, 2-MeTHF, RT) was < 2.9 mg/mL, the solubility ([2]; organic solvent or mixture, Anisole, RT) was < 3 mg/mL and the solubility ([2]; organic solvent or mixture, Benzene, RT) was < 2.9 mg/mL. The solubility ([2]; organic solvent or mixture, CPME, RT) was < 2.1 mg/mL, the solubility ([2]; organic solvent or mixture, Chloroform, RT) was < 2.3 mg/mL and the solubility ([2]; organic solvent or mixture, Cyclohexane, RT) was < 2.3 mg/mL. For the same compound, the solubility ([2]; organic solvent or mixture, DMA, RT) was 81 to 162 mg/mL, the solubility ([2]; organic solvent or mixture, DMF, RT) was 80 to 160 mg/mL and the solubility ([2]; organic solvent or mixture, Diethylamine, RT) was 170 to 340 mg/mL. For the same compound, the solubility ([2]; organic solvent or mixture, Diisopropyl ether, RT) was < 2.3 mg/mL, the solubility ([2]; organic solvent or mixture, Dimethoxyethane (DME), RT) was < 2.4 mg/mL and the solubility ([2]; organic solvent or mixture, EtOAc, RT) was < 2.3 mg/mL. The solubility ([2]; organic solvent or mixture, Heptane, RT) was < 2.8 mg/mL, the solubility ([2]; organic solvent or mixture, IPA, RT) was < 2.8 mg/mL and the solubility ([2]; organic solvent or mixture, MEK, RT) was < 2.4 mg/mL. For the same compound, the solubility ([2]; organic solvent or mixture, MTBE, RT) was < 2.8 mg/mL, the solubility ([2]; organic solvent or mixture, NMP, RT) was 120 to 240 mg/mL and the solubility ([2]; organic solvent or mixture, Propylene glycol, heated for few seconds using heat gun) was 22.2 to 27.8 mg/mL. For the same compound, the solubility ([2]; organic solvent or mixture, THF, RT) was < 2 mg/mL, the “Crystal Form” value ([3]; solvent DMA, antisolvent CPME) was “Form A” and the “Crystal Form” value ([3]; solvent DMA, antisolvent EtOAc) was “Form A”. For the same compound, the “Crystal Form” value ([3]; solvent DMA, antisolvent Toluene) was “Form A”, the “Crystal Form” value ([3]; solvent DMSO, antisolvent Benzene, *Loss of crystallinity) was “Form A*” and the “Crystal Form” value ([3]; solvent NMP, antisolvent IPAc) was “Form A”. The “Crystal Form” value ([4]; solvent DCM, antisolvent Acetone) was “Form A”, the “Crystal Form” value ([4]; solvent DCM, antisolvent MTBE) was “Form A” and the “Crystal Form” value ([4]; solvent NMP, antisolvent MTBE) was “Form A”. For the same compound, the “Crystal Form” value ([5]; 1-propanol) was “Form A”, the “Crystal Form” value ([5]; 2-MeTHF) was “Form A” and the “Crystal Form” value ([5]; ACN 9:1) was “Form A”. The “Crystal Form” value ([5]; Anisole) was “Form A”, the “Crystal Form” value ([5]; Cyclohexane) was “Form A” and the “Crystal Form” value ([5]; Dimethoxyethane) was “Form A”. For the same compound, the “Crystal Form” value ([5]; Ethyl acetate/MeOH 3:1) was “Form A”, the “Crystal Form” value ([5]; Heptane) was “Form A” and the “Crystal Form” value ([5]; IPAc) was “Form A”. The “Crystal Form” value ([5]; MEK) was “Form A”, the “Crystal Form” value ([5]; MTBE) was “Form A” and the “Crystal Form” value ([5]; Methyl Acetate) was “Form A”. The “Crystal Form” value ([5]; NMP:CPME (3:7 v/v)) was “Form A”, the “Crystal Form” value ([5]; Propylene glycol:Acetone 1:1) was “Form A” and the “Crystal Form” value ([5]; Propylene glycol:IPA 1:1) was “Form A”. The “Crystal Form” value ([5]; THF 9:1) was “Form A”, the “Crystal Form” value ([5]; Toluene) was “Form A” and the “Crystal Form” value [6] was “FB-2”. The “Crystal Form” value ([7]; polymer Brij, NMP:H2O 1:9, 40° C.) was “Amorphous”, the “Crystal Form” value ([7]; polymer PVC, DMF:DCM 1:9, RT) was “Form A” and the “Crystal Form” value ([7]; polymer PVP, DMA:H2O 1:9, 40° C.) was “Form A”. The “Crystal Form” value ([7]; polymer PVP, NMP:H2O 1:9, 40° C.) was “Form A”, the “Crystal Form” value ([8]; DMSO:EtOAc 1:9, XRPD after 1 day) was “Form A” and the “Crystal Form” value ([8]; THF, XRPD after 1 day) was “Form A”. The “Effect of solution pH on solubility” value ([9]; citrate-buffered solutions and formulations, pH 3 to 6) was “maxima at both pH 3 and 6”, the USP solubility definition ([9]; physiological pH range from 1.2 through 6.8) was “soluble” and the “Solubility trend as a function of pH” value ([9]; simple buffered solutions, pH 3.0 to 6.0) was “highest at pH 3.0”. The solubility ([9]; unbuffered water, ambient temperature, read-out: Solubility) was 38.5 mg/mL and the “Degradation by reaction of counterion with the pyrimidine ring” value [10] was “absence of this type of degradation”.
